The values that follow come from patent US12103919B2, “3-(5-oxy)-1-oxoisoindolin-2-yl)piperidine-2,6-dione derivatives and uses thereof” (NOVARTIS AG, priority 2021, dated 2024).

Data set [1] concerns Fetal Hemoglobin (HbF). The data set is described as follows: Small molecule HbF induction assay in erythroid-differentiated mPB CD34+ cells (flow cytometry). In kind it is cell-based, human. To be noted: highest percentage of cells staining positive for HbF (% HbF+ cells) in fitted dose-response curve; DMSO baseline approximately 30-40%. On the procedure: Cryopreserved primary human CD34^+ hematopoietic stem and progenitor cells were obtained from AllCeIIs, LLC. The CD34^+ cells were isolated from the peripheral blood of healthy donors after mobilization by administration of granulocyte colony-stimulating factor. Cells were differentiated ex vivo toward the erythroid lineage using a 2-phase culture method. In the first phase, cells were cultured in Stemspan™ Serum-Free Expansion Media (SFEM) ([…] Technologies Inc.) supplemented with rhSCF (50 ng/mL, Peprotech®, Inc.), rhlL-6 (50 ng/mL, Peprotech®, Inc.), rhlL-3 (50 ng/mL, Peprotech®, Inc.), and rhFlt3L (50 ng/mL, Peprotech®, Inc.), and 1× antibiotic-antimycotic (Life Technologies, Thermo Fisher Scientific) for 6 days at 37° C. with 5% CO2. During the second phase, cells were cultured in erythroid differentiation media at 5,000 cells/mL in the presence of compound for 7 days at 37° C. with 5% […]. Erythroid Differentiation Media is comprised of IMDM (Life Technologies) supplemented with insulin (10 μg/mL. Sigma Aldrich), heparin (2 U/mL Sigma Aldrich), holo-transferrin (330 μg/mL, Sigma Aldrich), human serum AB (5%, Sigma Aldrich), hydrocortisone (1 μM, […] Technologies), rhSCF (100 ng/mL, Peprotech®, Inc.), rhIL-3 (5 ng/mL. Peprotech®, Inc.), rhEPO (3 U/mL, Peprotech®, Inc.), and 1× antibiotic-antimycotic. All compounds were dissolved and diluted into dimethylsulfoxide (DMSO) and were added to culture media for a final concentration of 0.3% DMSO for testing in a 10-point, 1:3 dilution series starting at 10 uM.
For viability analysis, samples were washed and resuspended in phosphate-buffered saline (PBS) and stained with LlVE/DEAD™ Fixable Violet Dead Cell Stain Kit (Life Technologies, L34963) for 20 minutes. Cells were then washed again with PBS and resuspended in PBS supplemented with 2% fetal bovine serum (FBS), and 2 mM EDTA to prepare for cell surface marker analysis. […]
mPB CD34+ cells were expanded for 6 days, then erythroid differentiated in the presence of compound for 7 days. Cells were fixed, stained and analyzed by flow cytometry. […]
Background: Flow cytometry measures light scatter and fluorescence of single cells or particles in a stream.

Data set [2] has as its target T1, SALL4 (Homo sapiens, UniProt Q96SW2+Q9UJQ4).
T1 construct: expressed in transfected cells; host or cells: GripTite 293 MSR cells (293GT), ThermoFisher Scientific, stably transfected by electroporation, blasticidin-selected clones
The data set can be described thus: Quantification of SALL4 protein levels in HiBiT tag fusion protein assay. In kind it is cell-based. Here is the method: The HiBiT system from Promega was used to develop high-throughput and quantitative assays to measure changes in SALL4 protein levels in response to compounds. The HiBiT tag was derived from a split Nanoluciferase and has the following protein sequence: […] (SEQ ID No: 1). The complementary fragment of Nanoluciferase (known as LgBiT, from Promega), was added to the HiBiT tag to form an active Nanoluciferase enzyme whose activity can be precisely measured. In this way, the levels of a fusion protein with the HiBiT tag can be quantified in cell lysates.
DNA constructs, based on the Invitrogen pLenti6.2/V5 DEST backbone, were constructed with the HiBiT tag upstream of SALL4 and expressed the fusion protein from a CMV promotor.
To ensure moderate and consistent expression of the HiBiT-SALL4 fusion protein across all cells in the population, stable cell lines were derived from clones. GripTite 293 MSR cells (293GT) from ThermoFisher Scientific (Catalog number: CRL-R79507), were stably transfected with prepared constructs via electroporation. Following recovery, cells were selected by 10 ug/mL blasticidin in culture media.
The levels of HiBiT-SALL4 tagged fusion proteins in compound-treated cell lines were measured as follows:
On day 1, cells were diluted to 1.0×10^6 cells/ml in normal growth medium. 20 μL of cell suspension were plated in each well of a solid white 384-well plate. Plates were incubated overnight in a 37° C. and 5% CO2 humidified tissue culture incubator.
On day 2, serial dilutions of compounds were made in 384-well plates. Compound plates were set up with DMSO in columns 1, 2, 23, 24, and 10-point compound dilution series in column 3-12 and column 13-22. 10 mM stock solution of compound were placed into column 3 or 13 and a 1:5 serial dilution was carried out until there was a 10-point dilution series per compound. 100 nL of diluted compounds were transferred into the plated cells by Echo® (Labcyte) acoustic transfer. The highest concentration of compound was 50 μM. Plates were incubated overnight (18 hours) in a 37° C. and 5% CO2 humidified tissue culture incubator.
On day 3, plates were removed from the incubator and allowed to equilibrate at room temperature for 60 minutes. HiBiT substrate (Nano-Glo® HiBit Lytic Detection System, Promega Catalogue number: N3050) was added as described by the manufacturers protocols. Plates were incubated at room temperature for 30 minutes and luminescence was read using an EnVision® reader (PerkinElmer®). Data was analyzed and visualized using the Spotfire® software package.
SALL4 Amax reflects the DMSO-normalized, curve-fitted percentage of SALL4-HiBiT remaining at 50 uM. It was calculated by normalizing DMSO controls to 100%, parametric curve fitting of the dose response data (10-point, 5-fold), followed by calculation of response at 50 uM using the fitted equation.
This assay produced a range of SALL4 AC50 and Amax values over several repeat runs due to normal variations in the assay. For a comparison to the compounds described in PCT/IB2020/062070, the arithmatic mean values are reported over the number of repeats specified. […] The compounds of the present disclosure are therefore expected to have improved toxicological properties (Matyskiela, M. E., Couto, S., Zheng, X. et al. SALL4 mediates teratogenicity as a thalidomide-dependent cereblon substrate. Nat Chem Biol 14, 981-987 (2018); Donovan, K. A. et al. Thalidomide promotes degradation of SALL4, a transcription factor Implicated in Duane Radial Ray syndrome. eLife 2018; 7:e38430).

In data set [3] the target is T2, WIZ (Homo sapiens, UniProt O95785+Q96SW2).
T2 construct: expressed in transfected cells
T2 sequence (O95785 whole entry): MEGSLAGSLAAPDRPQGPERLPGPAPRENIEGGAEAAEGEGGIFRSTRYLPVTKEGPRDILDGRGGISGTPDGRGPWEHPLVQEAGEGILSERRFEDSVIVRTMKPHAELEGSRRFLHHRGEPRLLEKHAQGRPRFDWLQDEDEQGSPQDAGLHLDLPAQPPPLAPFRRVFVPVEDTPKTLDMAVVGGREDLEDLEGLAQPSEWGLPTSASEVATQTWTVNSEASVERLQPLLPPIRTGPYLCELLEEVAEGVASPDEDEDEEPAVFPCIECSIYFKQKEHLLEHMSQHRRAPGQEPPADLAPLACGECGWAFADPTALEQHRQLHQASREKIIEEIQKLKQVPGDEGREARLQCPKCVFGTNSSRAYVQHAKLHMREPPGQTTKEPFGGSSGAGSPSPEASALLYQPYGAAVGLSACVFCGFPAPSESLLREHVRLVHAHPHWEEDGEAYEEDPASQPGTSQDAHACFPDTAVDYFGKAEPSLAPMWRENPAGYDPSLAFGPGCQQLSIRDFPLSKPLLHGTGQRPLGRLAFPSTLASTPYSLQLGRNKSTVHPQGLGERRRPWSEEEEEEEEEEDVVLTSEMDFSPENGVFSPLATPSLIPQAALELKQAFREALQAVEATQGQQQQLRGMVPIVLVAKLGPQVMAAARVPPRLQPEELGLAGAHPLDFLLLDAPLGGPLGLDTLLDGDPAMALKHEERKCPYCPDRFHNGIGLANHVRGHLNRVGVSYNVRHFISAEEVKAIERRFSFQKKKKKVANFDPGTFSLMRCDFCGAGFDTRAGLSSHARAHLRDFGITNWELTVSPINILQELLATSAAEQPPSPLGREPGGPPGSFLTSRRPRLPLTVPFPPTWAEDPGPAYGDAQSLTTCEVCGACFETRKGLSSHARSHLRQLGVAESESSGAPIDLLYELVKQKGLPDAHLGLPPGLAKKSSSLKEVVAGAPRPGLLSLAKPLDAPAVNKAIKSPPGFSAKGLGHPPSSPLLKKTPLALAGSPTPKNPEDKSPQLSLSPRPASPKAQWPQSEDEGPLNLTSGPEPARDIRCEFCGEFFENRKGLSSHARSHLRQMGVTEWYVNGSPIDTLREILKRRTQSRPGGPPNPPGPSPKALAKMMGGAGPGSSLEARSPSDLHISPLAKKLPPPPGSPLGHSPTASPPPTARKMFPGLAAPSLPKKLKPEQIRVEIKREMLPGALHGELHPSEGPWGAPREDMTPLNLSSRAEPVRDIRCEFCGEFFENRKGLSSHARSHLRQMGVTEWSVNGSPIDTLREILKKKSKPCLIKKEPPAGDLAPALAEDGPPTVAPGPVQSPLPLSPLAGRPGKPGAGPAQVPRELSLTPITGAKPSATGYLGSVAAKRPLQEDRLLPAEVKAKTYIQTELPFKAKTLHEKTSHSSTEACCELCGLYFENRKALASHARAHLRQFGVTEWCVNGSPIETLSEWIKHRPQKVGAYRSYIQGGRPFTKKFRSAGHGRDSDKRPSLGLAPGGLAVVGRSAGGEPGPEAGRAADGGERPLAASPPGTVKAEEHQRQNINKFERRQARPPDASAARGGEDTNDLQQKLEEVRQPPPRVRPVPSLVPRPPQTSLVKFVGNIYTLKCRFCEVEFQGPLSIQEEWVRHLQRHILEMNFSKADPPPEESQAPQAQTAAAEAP
T2 sequence (Q96SW2 whole entry): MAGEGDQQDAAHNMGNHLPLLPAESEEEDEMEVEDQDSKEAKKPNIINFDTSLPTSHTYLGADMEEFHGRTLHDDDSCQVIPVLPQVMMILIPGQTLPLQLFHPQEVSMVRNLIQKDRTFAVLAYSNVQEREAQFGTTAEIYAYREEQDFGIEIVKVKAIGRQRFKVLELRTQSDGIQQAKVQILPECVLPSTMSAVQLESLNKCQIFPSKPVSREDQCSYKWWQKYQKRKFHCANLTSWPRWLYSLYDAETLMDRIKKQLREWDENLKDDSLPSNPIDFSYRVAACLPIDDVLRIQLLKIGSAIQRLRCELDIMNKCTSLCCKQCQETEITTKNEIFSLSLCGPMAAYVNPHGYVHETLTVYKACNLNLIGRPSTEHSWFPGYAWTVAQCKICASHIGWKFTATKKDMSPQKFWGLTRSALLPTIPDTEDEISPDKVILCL
T2 sequence (Q16531 whole entry partner): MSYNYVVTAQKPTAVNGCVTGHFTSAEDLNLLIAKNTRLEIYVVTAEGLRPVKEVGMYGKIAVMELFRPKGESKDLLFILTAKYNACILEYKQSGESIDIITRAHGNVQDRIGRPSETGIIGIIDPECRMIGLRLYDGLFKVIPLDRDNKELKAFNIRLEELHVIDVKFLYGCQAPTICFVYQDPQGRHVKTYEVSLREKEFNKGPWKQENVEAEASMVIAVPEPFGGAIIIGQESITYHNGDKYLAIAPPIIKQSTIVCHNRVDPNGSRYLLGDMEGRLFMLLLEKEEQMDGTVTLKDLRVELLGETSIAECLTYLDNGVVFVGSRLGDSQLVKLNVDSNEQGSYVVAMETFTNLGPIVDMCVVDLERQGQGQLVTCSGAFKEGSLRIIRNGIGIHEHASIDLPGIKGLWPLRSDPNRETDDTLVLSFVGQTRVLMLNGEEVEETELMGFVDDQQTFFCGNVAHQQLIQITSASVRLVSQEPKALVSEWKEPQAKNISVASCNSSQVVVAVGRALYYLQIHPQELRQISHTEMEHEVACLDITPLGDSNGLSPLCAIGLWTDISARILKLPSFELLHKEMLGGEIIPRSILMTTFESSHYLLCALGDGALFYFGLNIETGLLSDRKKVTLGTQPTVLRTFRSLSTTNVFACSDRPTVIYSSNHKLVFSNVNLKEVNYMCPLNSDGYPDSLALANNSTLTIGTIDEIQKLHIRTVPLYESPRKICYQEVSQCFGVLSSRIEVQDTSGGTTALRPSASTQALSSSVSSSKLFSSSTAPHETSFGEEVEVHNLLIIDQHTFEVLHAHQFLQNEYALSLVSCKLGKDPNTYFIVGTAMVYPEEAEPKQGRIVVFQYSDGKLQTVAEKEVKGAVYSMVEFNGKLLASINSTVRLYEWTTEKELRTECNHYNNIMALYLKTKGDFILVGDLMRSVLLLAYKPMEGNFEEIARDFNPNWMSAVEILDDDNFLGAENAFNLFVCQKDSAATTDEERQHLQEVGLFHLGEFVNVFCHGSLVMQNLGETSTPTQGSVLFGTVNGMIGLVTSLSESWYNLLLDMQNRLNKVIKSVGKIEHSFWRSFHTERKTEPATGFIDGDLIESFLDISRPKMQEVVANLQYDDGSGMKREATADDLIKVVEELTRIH
The data set is described as follows: Quantification of WIZ protein levels in HiBit tag fusion protein assay (293T cells). Details: Dmax: dose or concentration left out as unconfirmed. The class given is cell-based. The gist of the method:
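293T cells stably carrying a single-copy HiBit-WIZ fusion were exposed to compounds for about 18 hours at 37° C., top concentration 25 μM, 10-point 5-fold series. Lysates were complemented with LgBit and luminescence was read. Amax is the DMSO-normalized, curve-fitted percentage of WIZ-HiBit remaining at 25 uM.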
In general terms: With HiBiT, luminescence reflects the tagged protein that the partner subunit can reach.

The subject of data set [4] is HbF. To be noted: human primary erythroid cells; cited from earlier work.
Data set [5] has as its system HbF. To be noted: cited from earlier work.
For data set [6], the system named is HBG1/2. The data set can be described thus: Analysis of HbF gene expression by RNA-seq after CRISPR/Cas9 knockout of WIZ in mPB CD34+ cells. In kind it is cell-based, human. To be noted: WIZ KO vs scrambled gRNA control, 7 days erythroid differentiation, FIG. 1A. Here is the method: Mobilized peripheral blood (mPB) CD34+ cells (AllCells, LLC) were maintained in StemSpan™ serum-free expansion media (SFEM) ([…] Technologies Inc.) supplemented with 50 ng/mL each of rhTPO, rhlL-6, rhFLT3L, rhSCF for 2-3 days prior to shRNA transduction or targeted ribonucleoprotein (RNP) electroporation targeting WIZ. All cytokines were obtained from Peprotech®, Inc. Cell cultures were maintained at 37° C. and 5% CO2 in a humidified tissue culture incubator.
Alt-R CRISPR-Cas9 crRNA and tracrRNA (5′-[…]-3′; SEQ ID NO: 7) were purchased from Integrated DNA Technologies, Inc. Equimolar tracrRNA was annealed with WIZ targeting crRNA (Table 3) in Tris buffer (10 mM, pH 7.5) by heating at 95° C. for 5 minutes using a polymerase chain reaction (PCR) machine (Bio-Rad) followed by cooling to room temperature on the benchtop. Subsequently, a ribonucleoprotein (RNP) complex was generated by mixing annealed tracrRNA:crRNA with 6 ug of Cas9 at 37° C. for 5 minutes in 1× buffer containing HEPES (100 mM), KCl (50 mM), MgCl2 (2.5 mM), glycerol (0.03%), DTT (1 mM) and Tris pH 7.5 (2 mM). […]
Two independent, targeted CRISPR/Cas9 knockout (KO) of WIZ were done using WIZ_6 and WIZ_18 gRNAs or a non-targeting scrambled gRNA negative control in mPB CD34+ HSCs. […] The quality of isolated RNA was determined before sequencing using Agilent RNA 6000 Pico Kit (Agilent, catalogue #5067-1513). […]

T1 sequence (Q9UJQ4 whole entry): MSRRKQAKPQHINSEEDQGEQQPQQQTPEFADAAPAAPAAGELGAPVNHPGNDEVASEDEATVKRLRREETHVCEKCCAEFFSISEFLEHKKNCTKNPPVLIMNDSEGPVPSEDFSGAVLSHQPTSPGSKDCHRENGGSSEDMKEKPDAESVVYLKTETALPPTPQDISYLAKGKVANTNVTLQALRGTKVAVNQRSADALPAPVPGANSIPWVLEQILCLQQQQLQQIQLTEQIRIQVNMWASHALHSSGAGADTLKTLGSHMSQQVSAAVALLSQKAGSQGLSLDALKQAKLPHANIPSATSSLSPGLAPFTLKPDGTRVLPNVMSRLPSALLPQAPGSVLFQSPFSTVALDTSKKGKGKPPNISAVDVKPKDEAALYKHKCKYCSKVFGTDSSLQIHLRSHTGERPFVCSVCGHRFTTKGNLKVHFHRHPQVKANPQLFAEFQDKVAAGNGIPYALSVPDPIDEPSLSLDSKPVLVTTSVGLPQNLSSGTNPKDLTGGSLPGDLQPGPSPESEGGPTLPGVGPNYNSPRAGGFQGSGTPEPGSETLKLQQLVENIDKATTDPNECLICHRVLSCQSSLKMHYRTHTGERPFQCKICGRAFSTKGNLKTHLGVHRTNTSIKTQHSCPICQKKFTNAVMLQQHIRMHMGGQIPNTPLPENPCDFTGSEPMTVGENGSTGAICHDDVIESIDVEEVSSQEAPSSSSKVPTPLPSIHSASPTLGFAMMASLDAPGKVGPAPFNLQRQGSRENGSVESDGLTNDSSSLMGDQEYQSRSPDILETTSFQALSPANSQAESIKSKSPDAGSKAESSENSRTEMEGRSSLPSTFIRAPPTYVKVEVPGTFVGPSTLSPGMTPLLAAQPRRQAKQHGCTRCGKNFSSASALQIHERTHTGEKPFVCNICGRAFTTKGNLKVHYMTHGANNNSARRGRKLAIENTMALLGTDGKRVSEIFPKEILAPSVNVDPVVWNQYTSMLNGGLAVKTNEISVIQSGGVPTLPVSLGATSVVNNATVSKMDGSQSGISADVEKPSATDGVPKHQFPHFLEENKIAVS
T1 sequence (Q96SW2 whole entry): as the sequence (Q96SW2 whole entry) above
T1 sequence (Q16531 whole entry partner): as the sequence (Q16531 whole entry partner) above

With `CCN1CCCC[C@@H]1COc1ccc2c(c1)CN(C1CCC(=O)NC1=O)C2=O` (mixture of isomers) [Comparative Example 1, 3-(5-(((R)-1-ethylpiperidin-2-yl)methoxy)-1-oxoisoindolin-2-yl)piperidine-2,6-dione, reference compound], the “HbF Amax” value in data set [1] was 64.1%. Further, the “SALL4 Amax” value in data set [2] (DMSO-normalized, curve-fitted percentage of SALL4-HiBiT remaining at 50 uM, mean over repeats) amounted to 51.51%. Moreover, the DC50 in data set [2] (arithmatic mean over number of repeats, 18 hours, top 50 μM, read-out: SALL4 AC50) was 160 nM.
For the molecule `CCN1C[C@H](Oc2ccc3c(c2)CN(C2CCC(=O)NC2=O)C3=O)CC[C@@H]1C` (stereo partly drawn) [Example 41, 3-(5-(((3R,6S)-1-ethyl-6-methylpiperidin-3-yl)oxy)-1-oxoisoindolin-2-yl)piperidine-2,6-dione], in data set [1], the “HbF Amax” value is given as 73.1%. The Dmax in data set [3] (HEK-293T, read-out: % degradation of WIZ (100 − Amax)) stood at 88.6%. Further, the remaining activity at 25 µM in data set [3] (HEK-293T, read-out: WIZ Amax) came to 11.4%. Besides, the DC50 in data set [3] (read-out: WIZ AC50, WIZ HiBit assay in 293T cells, about 18 hours, 10-point 5-fold dilution, top 25 μM) was 0.14 nM.
Regarding `Nc1cccc2c1CN(C1CCC(=O)NC1=O)C2=O` (stereo not shown) [lenalidomide], the “HbF induction ex vivo” value in data set [4] is given as “induce HbF ex vivo”. Moreover, the “HbF induction in vivo” value in data set [5] was “induce HbF”.
As for `Nc1cccc2c1C(=O)N(C1CCC(=O)NC1=O)C2=O` (stereo not shown) [pomalidomide], the “HbF induction ex vivo” value in data set [4] is given as “induce HbF ex vivo”. In addition, the “HbF induction in vivo” value in data set [5] is recorded as “induce HbF”.
On to “WIZ_6: WIZ targeting crRNA/gRNA, AACATCTTTCGGGCCGTAGG, SEQ ID NO 9 (listed as DNA, chemistry not given here)”, for which the “HBG1/2 expression upon erythroid differentiation” value in data set [6] was “upregulation of fetal hemoglobin genes (HBG1/2)”.
For the molecule “WIZ_18: WIZ targeting crRNA/gRNA, AGTGGGTGCGGCACTTACAG, SEQ ID NO 14 (listed as DNA, chemistry not given here)”, the “HBG1/2 expression upon erythroid differentiation” value in data set [6] was “upregulation of fetal hemoglobin genes (HBG1/2)”.
